# From patent US20100298402A1, “STILBENE DERIVATIVES AS PSTAT3/IL-6 INHIBITORS” (ORCHID RESEARCH LABORATORIES LIMITED, priority 2007, published 2010)
# Tests used:
# Assay type in all cases: cell-based
# [1] = test system: HCT 116 (colon), NCIH460 (lung) and U251 (glioma) cell lines; assay: Anti-cancer screen (MTT growth inhibition, 48 hours); conditions: Homo sapiens; HCT 116, NCIH460 and U251 cell lines; MTT after 48 hours of incubation;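 also: mean GI50 across the three cell lines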
# Description: The experimental drugs were screened for anti-cancer activity in three cell lines using five concentrations for each compound. The cell lines—HCT 116 (colon), NCIH460 (lung) and U251 (glioma) were maintained in DMEM containing 10% fetal bovine serum. 96-well microtiter plates are inoculated with cells in 100 μL of cell suspension (5×10^4 cells/mL) for 24 hours at 37° C., 5% CO2, 95% air and 100% relative humidity. A separate plate with these cell lines is also inoculated to determine cell viability before the addition of the compounds (T0)
# Following 24-hour incubation, test compounds were added to the 96 well plates. Each plate contains one of the above cell lines and the following samples in triplicate: five different dilutions (0.01, 0.1, 1, 10 and 100 μM) of four test compounds, appropriate dilutions of a cytotoxic standard and growth medium (untreated) wells. Test compounds were dissolved in DMSO to prepare 20 mM stock solutions on the day of drug addition and serial dilutions were carried out in complete growth medium at 2× strength, such that 100 μL added to the wells gave final concentrations (0.01, 0.1, 1, 10 and 100 μM) in the well. SAHA was used as the standard drug in these experiments.
# For T0 measurement, 24 hours after seeding the cells, 20 μL of 3-(4,5-dimethyl-2-thiazolyl)-2,5-diphenyl-2H-tetrazolium (MTT) solution per well was added to the ‘T0’ plate and incubated for 3 hours at 37° C. in a CO2 incubator. The plate containing cells and test compounds was treated similarly after 48 hours of incubation. After 3 hours of MTT addition, well contents were aspirated carefully followed by addition of 150 μL DMSO per well. Plates were agitated to ensure dissolution of the formazan crystals in DMSO and absorbance was read at 570 nm (A570).
# Percent growth (PG) is calculated relative to the control and zero measurement wells (T0) as follows:
# PG values are plotted against drug concentration to derive the following: GI50 is the concentration required to decrease PG by 50% vs control; TGI is the concentration required to decrease PG by 100% vs control and LC50 is the concentration required to decrease PG by 50% vs T0. (Mosmann T. Rapid colorimetric assay for cellular growth and survival: application to proliferation and cytotoxicity assays. (J. Immunol. Methods. 1983, 65 (1-2), 55-63; Anne Monks et al); feasibility of high-flux anticancer drug screen using a diverse panel of cultured human tumor cell lines”. (JNCI, Vol. 83, No. 11, 1991). Results for growth inhibition of synthesized compounds are given in Table-1.
# [2] = test system: pSTAT3 in HEPG2 (liver cancer) cells induced by IL-6; assay: Inhibition of pSTAT3 (IL-6 induced phosphorylation of STAT3, Phospho-STAT3 (Tyr705) Sandwich ELISA); conditions: Homo sapiens, 4 hours compound, then IL-6 (10 ng/mL) 30 minutes
# Description: The experimental drugs were tested for their effect on phosphorylation of STAT3 in HEPG2 (liver cancer) cells induced by IL-6. Test compounds were dissolved in DMSO at 20 mM and diluted in a growth medium at 2× strength. Final DMSO concentration was less than 0.5%. 100 μL of cell suspension (10×10^4 cells/mL) was added to the wells of 96 well plates and allowed to adhere for 24 hours in a CO2 incubator at 37° C. Following overnight incubation, the culture medium was replaced with 100 μL of fresh growth medium and 100 μL of test compound (s), standard (Curcumin) and growth medium (untreated) wells. The plates were incubated in CO2 incubator at 37° C. for 4 hours. After compound treatment, IL-6 (10 ng/mL) was added to the wells and incubated for 30 minutes to induce pSTAT3.
# At the end of the 30 minutes incubation, cells were rinsed with ice-cold PBS and lysed with 1× Cell lysis buffer containing 1 mM PMSF (provided in the kit) on ice for 5 minutes. The cells were scraped off and transferred to an appropriate tube, sonicated on ice and centrifuged for 10 minutes at 4° C. The supernatant (cell lysate) was collected and stored at −80° C. and the levels of pSTAT3 were measured in the cell lysate by Path Scan Phospho-STAT3 (Tyr705) Sandwich ELISA kit (Cell Signaling, Cat No. 7300) by following the kit instructions.
# [3] = test system: IL-6 in supernatant of NCIH 460 cells; assay: Measuring IL-6 in culture supernatants (ELISA); conditions: Homo sapiens, NCI-H460, 5 hours incubation
GI50 [1],SMILES,inhibition at 10 µM [2],inhibition at 10 µM [3]
9 µM,"COC(=O)/C(=C/c1ccc(OCC(O)CNCCOc2ccccc2OC)cc1)c1ccc(C)cc1 (stereo not drawn) [Example 38, 3-{4-[3-(2-Methoxyphenoxyethylamino)-2-hydroxypropoxy]phenyl}-2-(4-methylphenyl)acrylic acid methyl ester]",77.2%,69.1%
6.2 µM,"COC(=O)/C(=C/c1ccc(OCC(O)CNCc2ccc(OC)cc2OC)cc1)c1ccc(C)cc1 (stereo not drawn) [Example 37, 3-{4-[3-(2,4-Dimethoxybenzylamino)-2-hydroxypropoxy]phenyl}-2-(4-methylphenyl)acrylic acid methyl ester]",42%,68.1%
0.86 µM,"COC(=O)/C(=C/c1ccccc1OCC(O)CNCc1ccccc1)c1ccc(OC)cc1 (stereo not drawn) [Example 43, 3-{2-[3-(Benzylamino)-2-hydroxypropoxy]phenyl}-2-(4-methoxyphenyl)acrylic acid methyl ester]",46.4%,9.6%
2.1 µM,"COC(=O)/C(=C/c1ccc(OCC(O)CNCc2ccccc2)cc1)c1cccc(Cl)c1 (stereo not drawn) [Example 49, 3-{4-[3-(Benzylamino)-2-hydroxypropoxy]phenyl}-2-(3-chlorophenyl)acrylic acid methyl ester]",58.4%,56%
